Measured values reported in patent US20110105436A1, “HETEROARYL COMPOUNDS, COMPOSITIONS, AND METHODS OF USE IN CANCER TREATMENT” (AUCKLAND UNISERVICES LIMITED, priority 2008, published 2011).
pIC50: −log10 of the molar value.

Assays:
RCC4 cells = assay: XTT assay in VHL-deficient RCC4 cells; type: cell-based; conditions: Homo sapiens, 96 h, XTT assay, VHL-deficient RCC4 cells, four days
Experimental: Cell Viability and XTT assays. For cell viability, 100,000 cells were plated in a 12-well plate. The following day, 1.25 μM STF-62247 was added in the presence or absence of 1 mM 3-MA for 24 hours at 37° C. Cells were trypsinized and counted by trypan blue exclusion. For XTT assays, 5000 RCC4 with and without VHL cells or 2,500 SN12C with and without VHL shRNA cells were plated in 96-well plates. The following day, vehicle (DMSO), STF-62247 or each of 19 analogs were added to media by serial dilution. Four days later, the media was aspirated and XTT solution containing 0.3 mg/ml of XTT (Sigma Chemical Co) in Phenol Red-free media, 20% FCS and 2.65 mg/ml N-methyl dibenzopyrazine methyl sulfate (PMS) was added to the cells and incubated at 37° C. for 1-2 hours. Metabolism of XTT was quantified by measuring the absorbance at 450 nm on a plate reader.

LC3 = LC3 processing by Western blot and immunostaining; type: cell-based; conditions: co-treatment with 1.25 μM STF-62247, 20 hrs, VHL-deficient RCC cells
Experimental: Western blot analysis. After treatments, cells were lysed in urea buffer (9M urea, 75 mM Tris (pH 7.5), 150 mM b-mercaptoethanol), placed on ice for 10 minutes and sonicated briefly (15 seconds). Extracts were centrifugated at 8,000×g for 10 minutes to eliminate insoluble material. Lysates were quantitated using Bio-Rad protein Assay (Bio-Rad Laboratories) and 20-30 μg of proteins were separated on a 7.5% or 15% bis-acrylamide gels and then transferred onto PVDF membranes. Proteins were visualized using HIF-2α (Novus Biological), HIF-1α, pVHL and BiP (BD Biosciences), LC3 (MBL), Atg5, or α-tubulin antibodies.
Immunofluorescence staining. Cells were seeded on glass coverslips and at subconfluence, STF-62247 was added at 1.25 μM for RCC4 and 3.75 μM for SN12C. After 20 hours, cells were fixed in 3.7% formaldehyde for 10 min at room temperature and washed in PBS. Then cells were permeabilized in 0.2% Triton X-100 for 5 min at room temperature and washed in PBS. The coverslips were incubated with primary antibody LC3 diluted 1:500 in PBS containing 0.2% BSA for 1 hour at room temperature. Cells were washed three times in PBS-BSA and the bound primary antibody was detected using a fluorescein-conjugated secondary antibody (ALEXA) diluted 1:500 in PBS-BSA and incubated for 1 hour. Coverslips were washed and mounted in mounting medium from Vector Laboratories according to the manufacturer's instructions. Cells were examined with a confocal microscope
A. Phase contrast pictures of VHL-deficient RCC4 and SN12C-VHL shRNA cells and VHL-positive cells RCC4 and SN12C after 20 hrs of 1.25 μM STF-62247. B. Immunostaining for LC3 following STF-62247 treatment at 1.25 μM for 20 hrs with or without 2 mM of 3-MA in RCC4 with and without VHL cells. After treatment, cells were fixed, permeabilized and processed for the detection of punctuate staining by indirect immunofluorescence. C. Autophagic vacuoles stained with monodansylcadaverine (MDC). After STF-62247 treatment in the same conditions, MDC was added for the last 10 minutes. Cells were fixed, washed with PBS and observed directly under microscope. D. Western blot for LC3 in RCC4, RCC4/VHL, SN12C, and SN12C-VHL shRNA cells after STF-62247 treatment with or without 3-MA. Nutrient starvation (EBSS) is used as positive control. E. Western blot for LC3 in RCC4 and RCC4/VHL with different concentrations of STF-62247. Tubulin was used as loading control. F. Cell viability assay in VHL-deficient RCC4 and wild-type VHL cells treated with 1 mM of 3-MA, 1.25 μM of STF-62247 alone or in combination for 24 hrs. Viability is measured by trypan blue exclusion assay and is represented by the average of three different experiments in duplicate as the percent of treated on untreated cells. The error bars are represented as SEM.
A. VHL-deficient RCC4 and wild-type VHL were incubated in presence of 10 μM LY294002, or 1 μg/mlBrefeldin A with 1.25 μM of STF-62247 for 20 hrs and the presence of vacuoles was examined under light microscopy. B,C. LC3 processing was evaluated by Western blot after the treatment with Brefeldin A or LY294002 in presence or absence of STF-62247 as described above. Tubulin was used as loading control. D. Cells were treated with 1.25 μM of STF-62247 with or without 2 mM of 3-MA, 1 μg/ml of Brefeldin A for 20 hrs. For the last 15 min, acidic components were stained with 1 μg/ml of acridine orange and visualized under fluorescence microscope. […] F. Quantification of the FACS analysis. The data are calculated as the average of three different experiments as relative units of treated over untreated cells. The error bars are represented as the standard error of the mean (SEM).
B,C. LC3 processing was evaluated by Western blot after the treatment with U0126 or tunicamycin in presence or absence of STF-62247 as described above. Tubulin was used as loading control.

Row | Structure (SMILES) | melting point [°C] | pIC50 (RCC4 cells; Table 1) | effect of inhibitor on vacuole formation and LC3-II induced by STF-62247 (LC3) | pIC50 (RCC4 cells; Table 2)
1 | Cc1cccc(Nc2nc(-c3ccncc3)c(C=O)s2)c1 [Compound 77, 2-[(3-Methylphenyl)amino]-4-(4-pyridinyl)-1,3-thiazole-5-carbaldehyde] | 220 to 223 | 4.82 |  | 
2 | CC(C)(C)c1cccc(Nc2nc(-c3ccncc3)cs2)c1 [Compound 11, N-(3-tert-Butylphenyl)-4-(4-pyridinyl)-1,3-thiazol-2-amine] | 208 to 210 | < 4.40 |  | 
3 | N#CC(=C(/N)Sc1ccccc1N)/C(C#N)=C(\N)Sc1ccccc1N [Compound U0126, reference compound] |  |  | had little effect on autophagy induced by STF-62247 | 
4 | Fc1cccc(F)c1Nc1nc(-c2ccncc2)cs1 [Compound 139, N-(2,6-Difluorophenyl)-4-(4-pyridinyl)-1,3-thiazol-2-amine] | 209 to 211 | < 4.40 |  | 
5 | COc1cc(Nc2nc(-c3ccncc3)cs2)cc(OC)c1 [Compound 57, N-(3,5-Dimethoxyphenyl)-4-(4-pyridinyl)-1,3-thiazol-2-amine] | 229 to 231 | < 4.40 |  | 
6 | Cc1cccc(Nc2nc(-c3ccncc3)c(C(=O)NCCCN3CCOCC3)s2)c1 [Compound 94, 2-[(3-Methylphenyl)amino]-N-[3-(4-morpholinyl)propyl]-4-(4-pyridinyl)-1,3-thiazole-5-carboxamide] | 190 to 192 | < 4.40 |  | 
7 | COC(=O)CCc1sc(Nc2cccc(C)c2)nc1-c1ccncc1 [Compound 79, Methyl 3-[2-[(3-Methylphenyl)amino]-4-(4-pyridinyl)-1,3-thiazol-5-yl]propanoate] | 121 to 123 | < 4.40 |  | 
8 | c1cc(-c2csc(Nc3ccc4c(c3)OCO4)n2)ccn1 [Compound 59, N-(1,3-Benzodioxol-5-yl)-4-(4-pyridinyl)-1,3-thiazol-2-amine] | 201 to 203 | < 4.40 |  | 
9 | O=[N+]([O-])c1ccccc1Nc1nc(-c2ccncc2)cs1 [Compound 119, N-[2-Nitrophenyl]-4-(4-pyridinyl)-1,3-thiazol-2-amine] | 127 to 130 | < 4.40 |  | 
10 | Cc1cccc(Nc2nc(-c3ccncc3N)cs2)c1 [Compound 182] | 159 to 161 |  |  | < 4.40
11 | N#Cc1ccc(Nc2nc(-c3ccncc3)cs2)cc1 [Compound 135, 4-{[4-(4-Pyridinyl)-1,3-thiazol-2-yl]amino}benzonitrile] | > 300 | < 4.40 |  | 
12 | O=[N+]([O-])c1ccc(Nc2nc(-c3ccncc3)cs2)cc1 [Compound 35, N-(4-Nitrophenyl)-4-(4-pyridinyl)-1,3-thiazol-2-amine] | > 290 | < 4.40 |  | 
13 | CCOC(=O)c1sc(Nc2ccc3c(c2)CCC3)nc1-c1ccncc1 [Compound 89, Ethyl 2-(2,3-Dihydro-1H-inden-5-ylamino)-4-(4-pyridinyl)-1,3-thiazole-5-carboxylate] | 203 to 205 | < 4.40 |  | 
14 | Cc1cccc(Nc2nc(-c3ccncc3)c(C(=O)NCCN(C)C)s2)c1 [Compound 93, N-[2-(Dimethylamino)ethyl]-2-[(3-methylphenyl)amino]-4-(4-pyridinyl)-1,3-thiazole-5-carboxamide] | 189 to 191 | < 4.40 |  | 
15 | Cc1cccc(Nc2nc(-c3ccncc3)co2)c1 [Compound 105, N-(3-Methylphenyl)-4-(4-pyridinyl)-1,3-oxazol-2-amine] | 201 to 204 | < 4.40 |  | 
16 | COc1cc(Nc2nc(-c3ccncc3)cs2)cc(OC)c1OC [Compound 63, 4-(4-Pyridinyl)-N-(3,4,5-trimethoxyphenyl)-1,3-thiazol-2-amine] | 207 to 209 | < 4.40 |  | 
17 | CCOC(=O)c1sc(Nc2cccc(C)c2)nc1-c1ccncc1 [Compound 88, Ethyl 2-[(3-Methylphenyl)amino]-4-(4-pyridinyl)-1,3-thiazole-5-carboxylate] | 233 to 235 | < 4.40 |  | 

Now from value to molecule, other results behind:

Row | melting point [°C] | Structure (SMILES) | pIC50 (RCC4 cells; Table 1) | effect of inhibitor on vacuole formation and LC3-II induced by STF-62247 (LC3) | pIC50 (RCC4 cells; Table 2)
18 | 158 to 160 | Cc1ccccc1Nc1nc(-c2ccncc2)cs1 [Compound 111, N-(2-Methylphenyl)-4-(4-pyridinyl)-1,3-thiazol-2-amine] | < 4.40 |  | 
19 | 271 to 274 | COc1ccc(C(=O)Nc2nc(-c3ccncc3)cs2)cc1 [Compound 102, 4-Methoxy-N-[4-(4-pyridinyl)-1,3-thiazol-2-yl]benzamide] | < 4.40 |  | 
20 | 208 to 210 | Cc1cccc(C)c1Nc1nc(-c2ccncc2)cs1 [Compound 137, N-(2,6-Dimethylphenyl)-4-(4-pyridinyl)-1,3-thiazol-2-amine] | < 4.40 |  | 
21 | 241 to 243 | O=C(Nc1nc(-c2ccncc2)cs1)c1ccccc1 [Compound 99, N-[4-(4-Pyridinyl)-1,3-thiazol-2-yl]benzamide] | < 4.40 |  | 
22 | 201 to 202 | Cc1cccc(C(=O)Nc2nc(-c3ccncc3)cs2)c1 [Compound 100, 3-Methyl-N-[4-(4-pyridinyl)-1,3-thiazol-2-yl]benzamide] | < 4.40 |  | 
23 | 192 to 194 | Cc1cccc(CNc2nc(-c3ccncc3)cs2)c1 [Compound 103, N-(3-Methylbenzyl)-4-(4-pyridinyl)-1,3-thiazol-2-amine] | < 4.40 |  | 
24 | 238 to 241 | Cc1ccc(C(=O)Nc2nc(-c3ccncc3)cs2)cc1 [Compound 101, 4-Methyl-N-[4-(4-pyridinyl)-1,3-thiazol-2-yl]benzamide] | < 4.40 |  | 
25 | 252 to 253 | N#Cc1cccc(Nc2nc(-c3ccncc3)cs2)c1 [Compound 127, 3-{[4-(4-Pyridinyl)-1,3-thiazol-2-yl]amino}benzonitrile] | < 4.40 |  | 
